Source: PubChem BioAssay (NCI)
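Dose response: 5 concentrations. Exposure: 48 h. Format: 96-well plates. Endpoint: linear interpolation; highest concentration if not reached. GI50: concentration for 50% inhibition of growth. TGI: concentration producing complete growth inhibition.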

How the values were obtained:
Experiment in all cases: NCI anticancer screen, dose series, 48 h
[1] = test system: NCI-H522 lung
[2] = test system: NCI-H23 lung
[3] = test system: M14 melanoma
[4] = test system: OVCAR-3 ovarian
[5] = test system: HL-60(TB) leukemia
[6] = test system: HOP-92 NSCLC
[7] = test system: MDA-MB-231 breast
[8] = test system: CAKI-1 renal
[9] = test system: OVCAR-5 ovarian
[10] = test system: SF-539 CNS
[11] = test system: TK-10 renal
[12] = test system: SN12C renal
[13] = test system: NCI-H460 lung
[14] = test system: SW-620 colon
[15] = test system: T-47D breast
[16] = test system: SNB-75 CNS
[17] = test system: MCF7 breast
[18] = test system: SK-MEL-2 melanoma
[19] = test system: RXF 393 renal
[20] = test system: UO-31 renal
[21] = test system: HT29 colon
[22] = test system: OVCAR-8 ovarian
[23] = test system: PC-3 prostate
[24] = test system: SK-MEL-5 melanoma
[25] = test system: CCRF-CEM leukemia
[26] = test system: A498 renal
[27] = test system: K-562 leukemia
[28] = test system: KM12 colon
[29] = test system: NCI/ADR-RES ovarian
[30] = test system: MOLT-4 leukemia
[31] = test system: ACHN renal
[32] = test system: A549 NSCLC
[33] = test system: SK-MEL-28 melanoma
[34] = test system: HCT-15 colon
[35] = test system: SR leukemia
[36] = test system: UACC-257 melanoma
[37] = test system: MALME-3M melanoma
[38] = test system: NCI-H226 lung
[39] = test system: SK-OV-3 ovarian
[40] = test system: 786-0 renal
[41] = test system: HOP-62 NSCLC
[42] = test system: SF-268 CNS
[43] = test system: HCT-116 colon
[44] = test system: SF-295 CNS
[45] = test system: DU-145 prostate
[46] = test system: RPMI-8226 leukemia
[47] = test system: COLO 205 colon

In the case of `NCC(=O)Nc1ccc(-n2nc(C(F)(F)F)cc2-c2ccc3c(ccc4ccccc43)c2)cc1`, the GI50 [1] is reported as 1.32 µM, the TGI [1] is reported as 2.71 µM and the GI50 [2] is reported as 1.78 µM. The TGI [2] was 3.75 µM, the GI50 [3] was 1.61 µM and the TGI [3] was 3.24 µM. It also gave a GI50 [4] of 1.34 µM, a TGI [4] of 2.65 µM and a GI50 [5] of 1.3 µM. It also gave a TGI [5] of 3.42 µM, a GI50 [6] of 1.27 µM and a TGI [6] of 2.65 µM. It also gave a GI50 [7] of 1.35 µM, a TGI [7] of 2.87 µM and a GI50 [8] of 1.17 µM. The TGI [8] was 2.66 µM, the GI50 [9] was 1.56 µM and the TGI [9] was 2.95 µM. The GI50 [10] was 1.06 µM, the TGI [10] was 2.41 µM and the GI50 [11] was 1.49 µM. It also gave a TGI [11] of 2.87 µM, a GI50 [12] of 1.65 µM and a TGI [12] of 3.4 µM. It also gave a GI50 [13] of 0.307 µM, a TGI [13] of 1.74 µM and a GI50 [14] of 0.835 µM. It also gave a TGI [14] of 2.16 µM, a GI50 [15] of 1.62 µM and a TGI [15] of 3 µM. The GI50 [16] was 1.26 µM, the TGI [16] was 2.79 µM and the GI50 [17] was 0.578 µM. The TGI [17] was 2.06 µM, the GI50 [18] was 1.82 µM and the TGI [18] was 3.48 µM. For the same molecule, the GI50 [19] was 1.38 µM, the TGI [19] was 2.75 µM and the GI50 [20] was 1.32 µM. For the same molecule, the TGI [20] was 2.61 µM, the GI50 [21] was 0.937 µM and the TGI [21] was 2.27 µM. It also gave a GI50 [22] of 0.929 µM, a TGI [22] of 3.15 µM and a GI50 [23] of 1.24 µM. For the same molecule, the TGI [23] was 2.66 µM, the GI50 [24] was 1.25 µM and the TGI [24] was 2.56 µM. It also gave a GI50 [25] of 0.746 µM, a TGI [25] of 4.16 µM and a GI50 [26] of 1.86 µM. It also gave a TGI [26] of 3.84 µM, a GI50 [27] of 0.472 µM and a TGI [27] of 3.38 µM. For the same molecule, the GI50 [28] was 0.922 µM, the TGI [28] was 2.18 µM and the GI50 [29] was 1.12 µM. It also gave a TGI [29] of 3.12 µM, a GI50 [30] of 0.809 µM and a TGI [30] of 4.01 µM. It also gave a GI50 [31] of 1.23 µM, a TGI [31] of 2.54 µM and a GI50 [32] of 0.959 µM. For the same molecule, the TGI [32] was 2.41 µM, the GI50 [33] was 1.45 µM and the TGI [33] was 2.81 µM. The GI50 [34] was 0.142 µM, the TGI [34] was 1.71 µM and the GI50 [35] was 0.342 µM. It also gave a TGI [35] of 2.35 µM, a GI50 [36] of 1.66 µM and a TGI [36] of 3.31 µM. The GI50 [37] was 1.83 µM, the TGI [37] was 3.51 µM and the GI50 [38] was 2.15 µM. For the same molecule, the TGI [38] was 6.35 µM, the GI50 [39] was 1.27 µM and the TGI [39] was 2.54 µM. The GI50 [40] was 1.47 µM, the TGI [40] was 3.06 µM and the GI50 [41] was 1.32 µM. The TGI [41] was 2.74 µM, the GI50 [42] was 1.13 µM and the TGI [42] was 2.75 µM. It also gave a GI50 [43] of 0.761 µM, a TGI [43] of 2 µM and a GI50 [44] of 1.16 µM. It also gave a TGI [44] of 2.6 µM, a GI50 [45] of 1.32 µM and a TGI [45] of 2.62 µM. It also gave a GI50 [46] of 1.29 µM, a TGI [46] of 4.08 µM and a GI50 [47] of 1.36 µM. For the same molecule, the TGI [47] was 2.89 µM.
